For test [1], the target named is T1, Sodium- and chloride-dependent GABA transporter 1 (Rattus norvegicus, UniProt P23978). Put plainly: Inhibition of GAT-1 in rat brain homogenate. Type of test: tissue-based.
Another test concerns the target T2, GABA transporter 4 (Mus musculus, UniProt P31650).
T2 sequence (P31650 whole entry): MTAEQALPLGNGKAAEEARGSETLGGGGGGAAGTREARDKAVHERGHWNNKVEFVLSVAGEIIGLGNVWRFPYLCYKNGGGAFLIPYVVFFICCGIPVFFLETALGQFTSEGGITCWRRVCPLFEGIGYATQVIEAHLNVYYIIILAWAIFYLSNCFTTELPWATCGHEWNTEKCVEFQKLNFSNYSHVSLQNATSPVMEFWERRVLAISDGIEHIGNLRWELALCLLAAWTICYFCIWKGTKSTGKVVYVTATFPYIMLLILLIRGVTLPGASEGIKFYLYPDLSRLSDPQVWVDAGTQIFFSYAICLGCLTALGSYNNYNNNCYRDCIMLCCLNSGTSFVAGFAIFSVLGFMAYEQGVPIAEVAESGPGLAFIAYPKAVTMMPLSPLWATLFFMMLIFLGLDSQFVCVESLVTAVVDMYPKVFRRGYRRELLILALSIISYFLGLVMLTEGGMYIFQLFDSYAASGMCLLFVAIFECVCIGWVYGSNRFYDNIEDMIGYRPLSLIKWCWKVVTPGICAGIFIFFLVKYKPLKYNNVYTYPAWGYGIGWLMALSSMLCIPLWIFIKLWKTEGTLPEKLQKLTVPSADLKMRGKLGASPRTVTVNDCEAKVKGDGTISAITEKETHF
The test is described as follows: Inhibition of mouse GAT-4 expressed in HEK293 cells assessed as decrease in [3H]GABA uptake preincubated for 25 mins followed by [3H]GABA addition and measured after 4 mins by scintillation counting analysis. In kind it is cell-based.

The target of test [2] is T3, Sodium- and chloride-dependent GABA transporter 1 (Mus musculus, UniProt P31648). The test is described as follows: Binding affinity to mouse GAT-1 expressed in HEK293 cells after 4 hrs in presence of NO711 by LC-ESI-MS/ms analysis. In kind it is cell-based.
Test [3] concerns the target T3, Sodium- and chloride-dependent GABA transporter 1. Put plainly: Inhibition of mouse GAT-1 expressed in HEK293 cells assessed as decrease in [3H]GABA uptake preincubated for 25 mins followed by [3H]GABA addition and measured after 4 mins by scintillation counting analysis. In kind it is cell-based.
Test [4] concerns the target T1, Sodium- and chloride-dependent GABA transporter 1. Put plainly: Inhibition of GAT-1 in rat brain homogenate assessed as decrease in [3H]GABA uptake preincubated for 8 mins followed by [3H]GABA addition and measured after 8 mins by scintillation counting analysis. Type of test: tissue-based.
Test [5] concerns the target Sodium- and chloride-dependent GABA transporter 1 (Mus musculus) (UniProt P31648). The test is described as follows: Inhibition of mouse GAT-1 assessed as percentage of remaining specific binding of NO711 at 1 uM after 4 hrs by LC-ESI-MS/ms analysis relative to control.
Test [6] shares this target. The test is described as follows: Inhibition of mouse GAT-1 assessed as percentage of remaining specific binding of NO711 at 100 nM after 4 hrs by LC-ESI-MS/ms analysis relative to control.
Test [7] shares this target. Put plainly: Inhibition of mouse GAT-1 assessed as percentage of remaining specific binding of NO711 at 4 uM after 4 hrs by LC-ESI-MS/ms analysis relative to control.
The target is the same in test [8]. The test is described as follows: Inhibition of mouse GAT-1 assessed as percentage of remaining specific binding of NO711 at 40 uM after 4 hrs by LC-ESI-MS/ms analysis relative to control.

Consider seven compounds from ChEMBL document CHEMBL4400545 (Bioorg Med Chem, 2019).

By IC50 is commonly meant the midpoint of a concentration-inhibition curve. `O=C(O)[C@@H]1CCCN(CCO/N=C(\Cc2ccccc2F)c2ccccc2F)C1` showed an IC50 in [1] of 80 nM.
The Ki is a measure of affinity in units of concentration, obtained from inhibition or displacement. With `O=C(O)[C@@H]1CCCN(CCO/N=C/c2ccccc2-c2ccc(Cl)cc2Cl)C1`, the values for the IC50 (on GABA transporter 4; in test [3]) were 63100 nM and 60.3 nM, respectively. For the same compound, the Ki in test [2] was 5.89 nM.
As for `O=C(O)C1=CCCN(CCON=C(c2ccccc2)c2ccccc2)C1`, in test [4], the IC50 was 40 nM.
`O=C(O)C1CCCN(CCO/N=C/c2ccccc2-c2ccc(Cl)cc2Cl)C1` (racemic): the values for the IC50 (on GABA transporter 4; in [3]) were 70800 nM and 38.9 nM, respectively. The Ki in [2] was 10.5 nM. Also, the values for the Activity in test [5] and in test [6] were 5% and “Below limit of detection”, respectively.
Consider `O=C(O)C1CCCN(CCO/N=C/c2cc(F)ccc2-c2ccc(Cl)cc2Cl)C1` (racemic), for which the IC50 was 32400 nM at GABA transporter 4 and 170 nM in test [3]. Also, the Ki in [2] is 17 nM. Moreover, the Activity in [5] is 16%; in test [6] it was “Below limit of detection”.
Turning to `O=C(O)C1CCCN(CCO/N=C/c2sccc2-c2ccc(Cl)cc2Cl)C1` (racemic), the IC50 was 72400 nM on GABA transporter 4 and 28.2 nM in test [3]. The Ki in test [2] was 11.7 nM. Further, the results for the Activity in [5] and in test [6] were 12% and “Below limit of detection”, respectively.
In the case of `NOCCN1CCCC(C(=O)O)C1` (racemic), the Activity worked out at 99% in test [7] and 92% in test [8].
